Earlier results, collected in patent US5268391A, “Propargyl-terminated cycloalkylalkyl-P2-site substituted aryl/alkylsulfonyl-terminated alanine amino-diol compounds for treatment of hypertension” (C. D. Searle & Co., priority 1992, dated 1993).
Where a SMILES comes first, the peptide text is derived from it. [ ]: non-standard residue; d: D form. The star is where a group is joined. Sta = CC(C)C[C@H](N)[C@@H](O)CC(=O)O; Isovaleryl = CC(C)CC(=O)*

System: hog renin
Conditions: after the injection of hog renin into nephrectomized rats

In the case of CC(C)CC(=O)N[C@H](C(=O)N[C@H](C(=O)N[C@@H](CC(C)C)[C@@H](O)CC(=O)N[C@@H](C)C(=O)N[C@@H](CC(C)C)[C@@H](O)CC(=O)O)C(C)C)C(C)C [pepstatin] (Isovaleryl-VV[Sta]A[Sta]-OH), the “blood pressure in vivo” value is given as “reduce blood pressure”.
